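Results reflect a 48-hour exposure of cells in 96-well plates to compound at five concentrations. GI50 is the concentration that inhibits growth by half. TGI: concentration producing complete growth inhibition.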

This passage reports GI50 and TGI results from PubChem BioAssay (NCI).

Assay in all cases: inhibition of tumour cell growth, NCI panel, 48 h
For assay [1], the system named is MALME-3M melanoma.
In assay [2] the test system is HCC-2998 colon.
For assay [3], the system named is EKVX NSCLC.
The subject of assay [4] is NCI-H522 lung.
In assay [5] the test system is T-47D breast.
Assay [6] relates to MDA-MB-435.
Assay [7] deals with SF-295 CNS.
Assay [8] has as its system IGROV1 ovarian.
In assay [9] the test system is SK-OV-3 ovarian.
In assay [10] the test system is K-562 leukemia.

Turning to `COc1ccc2c(c1)[nH]c(=O)c1c3cc(OC)c(OC)cc3cn21`, the GI50 in assay [1] is 16.6 µM; in [2] it was less than 0.01 µM; in [3], 0.0312 µM; in assay [4] it was less than 0.01 µM; in assay [5], 15.4 µM; in [6], less than 0.01 µM. Also, the GI50 was less than 0.01 µM in [7], less than 0.0178 µM in [8] and less than 0.0111 µM in assay [9]. Besides, the TGI was 44.1 µM in assay [1]; 0.0768 µM in [2]; 18.9 µM in [3]; 0.0125 µM in assay [4]; 35.6 µM in assay [5]; less than 0.01 µM in assay [6]. The TGI was 0.409 µM in assay [7], 0.233 µM in [8] and 17.5 µM in assay [9].

`O=C(Cc1csc2nc(-c3ccc(Br)cc3)cn12)N/N=C/c1ccc(Cl)cc1Cl`: the GI50 in assay [2] is 20 µM; in [3], 31.6 µM; in assay [4] it was 25.8 µM; in [5], more than 100 µM; in assay [6] it was 31.4 µM; in assay [7], 34.7 µM. For the same molecule, the GI50 in assay [8] is 16 µM; in assay [9], more than 100 µM. In addition, the TGI in assay [2] was 44.8 µM; in assay [3], more than 100 µM; in assay [4], more than 100 µM; in assay [5] it was more than 100 µM; in assay [6], more than 100 µM; in assay [7], more than 100 µM. In addition, the values for the TGI in assay [8] and in assay [9] were 45.6 µM and more than 100 µM, respectively.

In the case of `Cc1cn([C@H]2C[C@H](O)[C@@H](CO)O2)c(=O)nc1N`, the TGI in [1], in assay [4], in [5], in [6], in assay [7] and in assay [10] was more than 100 µM each time. Moreover, the TGI in assay [8] and in assay [9] was more than 100 µM each time.

As for `CN(C)c1ccc(Nc2c3ccccc3nc3cc(NC(=O)CCN4CCCC4)ccc23)cc1`, the GI50 is 1.12 µM in [1]; 0.627 µM in [2]; 0.964 µM in [3]; 0.541 µM in assay [4]; 0.455 µM in assay [5]; 1.22 µM in assay [6]. Moreover, the GI50 in assay [7] is 0.362 µM; in [8], 0.291 µM; in assay [9], 0.413 µM. In addition, the TGI amounted to 2.41 µM in [1]; 2.26 µM in assay [2]; 2.62 µM in [3]; 2.21 µM in assay [4]; 2.43 µM in assay [5]; 2.49 µM in assay [6]. For the same molecule, the TGI amounted to 1.51 µM in [7], 1.83 µM in assay [8] and 1.78 µM in [9].

Regarding `CCSc1ccc([C@@H]2[C@@H](N)C(=O)N2c2cc(OC)c(OC)c(OC)c2)cc1`, the GI50 is more than 100 µM in assay [1]; 0.755 µM in assay [2]; 0.638 µM in assay [3]; 0.0238 µM in assay [4]; 0.0277 µM in assay [6]; 0.0515 µM in assay [7]. The GI50 in [10] was 0.0359 µM; in assay [8], 1.43 µM; in [9], 0.0545 µM. Besides, the TGI was more than 100 µM in assay [1]; more than 100 µM in assay [2]; more than 100 µM in assay [3]; 0.0966 µM in [4]; 0.102 µM in [6]; more than 100 µM in assay [7]. The TGI in assay [10], in [8] and in assay [9] was more than 100 µM each time.

Consider `O=C(O)c1cn(C2CC2)c2cc(N3CCNCC3)c(F)cc2c1=O`, for which the GI50 in assay [1] is 74.6 µM; in assay [2] it was 98 µM; in [4], more than 100 µM; in assay [5], 70 µM; in assay [6] it was more than 100 µM; in assay [8], more than 100 µM. In addition, the GI50 in [9] is more than 100 µM. Also, the TGI in assay [1], in [2], in assay [4], in assay [5], in assay [6] and in assay [8] was more than 100 µM in each case. Moreover, the TGI in assay [9] was more than 100 µM.

With `CCCCCCCCCCCCCCCC(=O)OCC1OC(OC)C(NC(=O)N(CCCl)N=O)C(O)C1O` (stereo unspecified), the TGI in assay [1] is 59 µM; in assay [2], 48.2 µM; in [3], more than 87.5 µM; in assay [4], 34.7 µM; in assay [6], 31.3 µM; in assay [7] it was 24.7 µM. In addition, the TGI in assay [10] was found to be 62.1 µM; in [8] it was 54 µM; in assay [9], 63 µM.

Turning to `COc1cc2cnc(-c3ccccc3)cc2cc1OC`, the TGI is 60.4 µM in assay [1]; 34.3 µM in assay [3]; 53 µM in assay [4]; more than 100 µM in assay [5]; 67.3 µM in assay [6]; 45.1 µM in [7]. Besides, the TGI is 78.3 µM in assay [10], 49.5 µM in assay [8] and more than 100 µM in assay [9].

As for `COc1ccc(/C=C\c2cc(OC)c(OC)c(OC)c2)cc1OCC(=O)Nc1nc2ccccc2s1`, the GI50 was 0.338 µM in assay [1]; 0.447 µM in [2]; 3.65 µM in [3]; 0.049 µM in assay [4]; 1.59 µM in assay [5]; 0.22 µM in [7]. Besides, the GI50 in assay [10] is 0.0423 µM; in [8] it was 0.221 µM; in [9] it was 0.374 µM. Besides, the TGI was more than 85.3 µM in assay [1]; more than 100 µM in assay [2]; more than 100 µM in assay [3]; 0.338 µM in [4]; more than 69.6 µM in assay [5]; 0.646 µM in assay [7]. In addition, the figures for the TGI in assay [10], in [8] and in [9] were more than 100 µM, more than 81.4 µM and more than 100 µM, respectively.

`COc1ccc(C(=O)/C=C/c2cc(-c3ccc4c(c3)OCO4)n[nH]2)cc1OC`: the GI50 in assay [1] is 7.32 µM; in assay [2], 4.99 µM; in assay [4] it was 1.82 µM; in assay [5] it was 3.23 µM; in [6] it was 3.03 µM; in assay [7], 2.51 µM. Further, the GI50 in assay [10] is 2.47 µM; in assay [8], 2.79 µM; in [9] it was 3.97 µM. The TGI was 22.8 µM in assay [1]; 17.3 µM in assay [2]; 4.44 µM in [4]; 26.1 µM in [5]; 10 µM in [6]; 6.15 µM in assay [7]. The figures for the TGI in [10], in assay [8] and in [9] were 16.7 µM, 9.2 µM and 26.4 µM, respectively.
